The values below come from patent publication US20070249648A1, “Novel Diazaspiroalkanes and Their Use for Treatment of Ccr8 Mediated Diseases” (priority 2003, published 2007).

This test deals with T1, human recombinant chemokine CCR8 receptor (Homo sapiens, UniProt P51685).
T1 construct: purchased Euroscreen ES-136-M; host or cells: CHO-K1 cells (membrane preparation)
Nature of the test: CCL1 SPA Binding Assay. The conditions noted are these: 125I CCL1 (30 pM) binding to membranes from CHO-K1 cells transfected with CCR8, Wheat Germ Agglutinin SPA beads; typical data. How it is done: Membranes from CHO-K1 cells transfected with human recombinant chemokine CCR8 receptor (ES-136-M) were purchased from Euroscreen. Membrane preparations are stored at −70C in 7.5 mM Tris-Cl pH 7.5, 12.5 mM MgCl2, 0.3 mM EDTA, 1 mM EGTA, 250 mM sucrose until used.
The CCR8 membranes ([…]) were preincubated with Wheat Germ Agglutinin SPA beads (4.05 mg/ml) in assay buffer (50 mM HEPES, 1 mM CaCl2x2H2O, 5 mM MgCl2x6H2O, 75 mM NaCl, 0.1% BSA) at pH=7.4 for 2 hours on ice. A 10-point dose-response curve (final concentrations 50 μM, 16.7 μM, 5.6 μM, 1.9 μM, 0.62 μM, 0.21 μM, 0.069 μM, 0.023 μM) was prepared by diluting compounds by serial dilution 1:3 in DMSO. In the screening plate (Polystyrene NBS plates, Costar Corning 3604) 1 μl from the DMSO solutions of compounds was transferred into each well. 1 μl of DMSO was added to the blank control wells and 1 μl unlabeled CCL1 (300 nM) was added to background control wells. 50 μl of the SPA bead-membrane mixture was added into each well. Finally, 50 μl (30 pM) ^125I CCL1 (2000 Ci/mM) was added to each well. Plates were then incubated at RT with shaking (700 rpm) for 90 minutes followed by 30 minutes at RT without shaking. The plate was read in a Wallac MicroBeta counter for 2 minutes/well.

Where a name gives a salt, the structure may show the parent alone.

T1 sequence (P51685 whole entry): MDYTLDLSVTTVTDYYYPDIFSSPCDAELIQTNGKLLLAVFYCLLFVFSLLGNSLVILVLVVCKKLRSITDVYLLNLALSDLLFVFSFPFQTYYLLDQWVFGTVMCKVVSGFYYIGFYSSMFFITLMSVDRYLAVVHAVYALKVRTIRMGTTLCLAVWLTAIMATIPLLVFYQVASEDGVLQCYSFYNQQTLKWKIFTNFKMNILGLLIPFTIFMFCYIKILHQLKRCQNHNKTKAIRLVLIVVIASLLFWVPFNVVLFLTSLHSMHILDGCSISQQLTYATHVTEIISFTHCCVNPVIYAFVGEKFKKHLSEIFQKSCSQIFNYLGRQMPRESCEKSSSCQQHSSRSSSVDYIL

The term IC50 denotes the concentration at which inhibition is half-maximal. On to `CCCOc1ccccc1CN1CCC2(CC1)CCN(C(=O)c1ccccc1)CC2` [3-benzoyl-9-(2-propoxybenzyl)-3,9-diazaspiro[5.5]undecane trifluoroacetate], for which the IC50 came to 165 nM.

`Cc1noc(C)c1COc1ccccc1CN1CCC2(CC1)CCN(C(=O)c1ccccc1)CC2` [3-benzoyl-9-{2-[(3,5-dimethylisoxazol-4-yl)methoxy]benzyl}-3,9-diazaspiro[5.5]undecane trifluoroacetate]: the 50% inhibitory concentration (IC50) worked out at 710 nM.
